The source made the active and inactive calls.
Tests used:
[1] = target: T1, Calpain-2 catalytic subunit (Sus scrofa, UniProt P43367); assay: m-calpain protease blockers, concentration series – biochemical, fluorogenic peptide substrate, dose response (AID 1420); type: functional
T1 sequence (P43367 whole entry): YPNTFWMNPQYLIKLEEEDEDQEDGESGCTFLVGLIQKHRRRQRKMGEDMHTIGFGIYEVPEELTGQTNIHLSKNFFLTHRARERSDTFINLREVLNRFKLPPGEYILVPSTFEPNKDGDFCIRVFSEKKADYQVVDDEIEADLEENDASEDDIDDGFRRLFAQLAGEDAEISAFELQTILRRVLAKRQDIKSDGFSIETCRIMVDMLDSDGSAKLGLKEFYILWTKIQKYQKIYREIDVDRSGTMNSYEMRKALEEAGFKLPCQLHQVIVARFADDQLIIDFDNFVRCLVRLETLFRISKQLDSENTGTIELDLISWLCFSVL

Escherichia coli = assay: microbe, parasite or virus in culture
[2] = target: Eukaryotic translation initiation factor 4E (Mus musculus, UniProt P63073); assay: blockers of eIF4G binding by eIF4E – biochemical, TR-FRET, dose response (AID 855); type: functional;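 also: potency for disrupting eIF4E binding to eIF4GI seen as loss of FRET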
Eukaryotic translation initiation factor 4E, sequence (P63073 whole entry): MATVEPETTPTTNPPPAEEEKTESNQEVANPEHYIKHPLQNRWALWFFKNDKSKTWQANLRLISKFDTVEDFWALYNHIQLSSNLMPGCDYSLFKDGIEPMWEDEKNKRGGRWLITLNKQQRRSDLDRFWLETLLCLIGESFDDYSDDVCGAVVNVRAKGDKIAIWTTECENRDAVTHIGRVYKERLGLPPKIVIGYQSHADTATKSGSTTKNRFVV

Insulin-degrading enzyme = target: T2, Insulin-degrading enzyme (Homo sapiens, UniProt P14735); assay: Dose Response: Fluorescence polarization-based cell-based high throughput dose response assay for inhibitors of insulin-degrading enzyme (IDE). [Related pubchem assays: 434962 (Primary screen (IDE inhibitors in singlicate)), 449730 (Counterscreen (Cytotoxicity in triplicate)), 435028 (Confirmation (IDE inhibitors in triplicate)), 434984 (Summary …; type: functional
T2 sequence (P14735 whole entry): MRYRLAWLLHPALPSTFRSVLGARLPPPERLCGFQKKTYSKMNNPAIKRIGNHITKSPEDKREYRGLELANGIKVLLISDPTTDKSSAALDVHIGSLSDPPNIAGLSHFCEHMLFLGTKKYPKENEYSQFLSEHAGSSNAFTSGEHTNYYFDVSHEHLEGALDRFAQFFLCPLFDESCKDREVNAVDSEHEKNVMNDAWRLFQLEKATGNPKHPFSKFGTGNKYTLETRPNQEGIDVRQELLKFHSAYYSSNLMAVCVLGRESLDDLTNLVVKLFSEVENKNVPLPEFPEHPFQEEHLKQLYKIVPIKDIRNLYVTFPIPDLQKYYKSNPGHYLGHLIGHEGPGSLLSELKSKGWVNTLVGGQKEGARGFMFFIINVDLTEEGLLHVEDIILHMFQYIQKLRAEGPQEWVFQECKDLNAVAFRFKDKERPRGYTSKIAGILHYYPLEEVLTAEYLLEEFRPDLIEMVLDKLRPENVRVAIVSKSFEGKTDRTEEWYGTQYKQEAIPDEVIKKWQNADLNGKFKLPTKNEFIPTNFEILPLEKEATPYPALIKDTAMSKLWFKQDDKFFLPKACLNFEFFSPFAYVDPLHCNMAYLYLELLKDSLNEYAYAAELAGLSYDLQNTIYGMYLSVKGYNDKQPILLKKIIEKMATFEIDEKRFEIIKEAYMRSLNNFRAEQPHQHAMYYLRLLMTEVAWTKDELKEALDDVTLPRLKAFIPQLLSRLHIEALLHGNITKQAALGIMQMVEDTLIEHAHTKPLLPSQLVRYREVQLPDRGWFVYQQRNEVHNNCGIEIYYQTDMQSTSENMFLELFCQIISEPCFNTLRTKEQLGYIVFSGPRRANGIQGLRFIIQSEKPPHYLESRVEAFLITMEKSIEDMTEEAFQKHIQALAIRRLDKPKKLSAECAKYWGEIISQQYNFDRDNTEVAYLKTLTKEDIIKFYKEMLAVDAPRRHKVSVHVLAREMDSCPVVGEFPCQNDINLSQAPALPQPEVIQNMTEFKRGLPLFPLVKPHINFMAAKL

[3] = Counterscreen for IDE inhibitors: Luminescence-based cell-based high throughput dose response assay to identify compounds that are cytotoxic to HEK cells. [Related pubchem assays: 434962 (Primary screen (IDE inhibitors in singlicate)), 449730 (Counterscreen (Cytotoxicity in triplicate)), 435028 (Confirmation (IDE inhibitors in triplicate)) …; type: functional; conditions: HEK293
[4] = A cytotoxicity screen of small molecule inhibitors of the PhoP region in Salmonella typhi identified in the primary screen. [Related pubchem assays: 1850, 1864, 1985 ]; type: functional
INS1 = assay: INS-1E survival protection against cytokine death – cell-based, luminescence, retest, dose response (AID 449756); type: functional; conditions: Rattus norvegicus;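 also: cell death triggered by IL-1 beta plus TNF-alpha plus IFN-gamma mixture; protective hits raise ATP signal compared with cytokine alone wells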
[5] = Trypanosoma cruzi growth suppression in host cells – NIH3T3 host cells, beta-gal luminescence, confirmation (AID 2044); type: functional, cell-based;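 also: intracellular parasites grown in NIH/3T3 mouse fibroblasts as host cells; luminescent beta-galactosidase reporter signal from transgenic T. cruzi replicating inside host cells; inhibitors lower the luminescence signal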
[6] = HEK-293T cell viability reduction – luminescence, B-cell screen hits, cytotoxicity control for BCR NF-kB inhibitor project, dose response (AID 489021); type: functional, cell-based;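 also: HEK-293T cells carrying an NF-kB luciferase reporter; cells exposed to compound for about 14 hours before viability readout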
[7] = NIH3T3 cell viability loss – ATP luminescence, mouse fibroblasts, counter-screen, dose response (AID 2010); type: functional, cell-based;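 also: cells exposed to compound for about 90 hours before reading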
[8] = target: Peroxisome proliferator-activated receptor gamma/Nuclear receptor corepressor 2 (Homo sapiens, UniProt P37231+Q9Y618); type: functional
Peroxisome proliferator-activated receptor gamma/Nuclear receptor corepressor 2, sequence (P37231 whole entry): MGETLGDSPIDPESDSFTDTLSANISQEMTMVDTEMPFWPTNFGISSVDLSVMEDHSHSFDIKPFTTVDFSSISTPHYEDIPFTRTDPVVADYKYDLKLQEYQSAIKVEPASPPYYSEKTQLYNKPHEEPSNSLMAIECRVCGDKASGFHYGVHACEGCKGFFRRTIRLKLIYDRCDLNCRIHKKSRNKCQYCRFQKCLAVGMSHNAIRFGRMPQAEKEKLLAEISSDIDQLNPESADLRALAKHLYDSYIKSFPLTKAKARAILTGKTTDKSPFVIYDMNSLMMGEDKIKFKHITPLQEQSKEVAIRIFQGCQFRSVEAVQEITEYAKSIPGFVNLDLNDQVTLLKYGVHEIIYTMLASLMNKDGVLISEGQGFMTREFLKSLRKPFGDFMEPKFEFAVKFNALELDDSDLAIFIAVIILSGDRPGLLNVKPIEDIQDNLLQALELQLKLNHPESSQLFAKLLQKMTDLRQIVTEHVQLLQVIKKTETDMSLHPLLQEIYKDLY
Peroxisome proliferator-activated receptor gamma/Nuclear receptor corepressor 2, sequence (Q9Y618 whole entry): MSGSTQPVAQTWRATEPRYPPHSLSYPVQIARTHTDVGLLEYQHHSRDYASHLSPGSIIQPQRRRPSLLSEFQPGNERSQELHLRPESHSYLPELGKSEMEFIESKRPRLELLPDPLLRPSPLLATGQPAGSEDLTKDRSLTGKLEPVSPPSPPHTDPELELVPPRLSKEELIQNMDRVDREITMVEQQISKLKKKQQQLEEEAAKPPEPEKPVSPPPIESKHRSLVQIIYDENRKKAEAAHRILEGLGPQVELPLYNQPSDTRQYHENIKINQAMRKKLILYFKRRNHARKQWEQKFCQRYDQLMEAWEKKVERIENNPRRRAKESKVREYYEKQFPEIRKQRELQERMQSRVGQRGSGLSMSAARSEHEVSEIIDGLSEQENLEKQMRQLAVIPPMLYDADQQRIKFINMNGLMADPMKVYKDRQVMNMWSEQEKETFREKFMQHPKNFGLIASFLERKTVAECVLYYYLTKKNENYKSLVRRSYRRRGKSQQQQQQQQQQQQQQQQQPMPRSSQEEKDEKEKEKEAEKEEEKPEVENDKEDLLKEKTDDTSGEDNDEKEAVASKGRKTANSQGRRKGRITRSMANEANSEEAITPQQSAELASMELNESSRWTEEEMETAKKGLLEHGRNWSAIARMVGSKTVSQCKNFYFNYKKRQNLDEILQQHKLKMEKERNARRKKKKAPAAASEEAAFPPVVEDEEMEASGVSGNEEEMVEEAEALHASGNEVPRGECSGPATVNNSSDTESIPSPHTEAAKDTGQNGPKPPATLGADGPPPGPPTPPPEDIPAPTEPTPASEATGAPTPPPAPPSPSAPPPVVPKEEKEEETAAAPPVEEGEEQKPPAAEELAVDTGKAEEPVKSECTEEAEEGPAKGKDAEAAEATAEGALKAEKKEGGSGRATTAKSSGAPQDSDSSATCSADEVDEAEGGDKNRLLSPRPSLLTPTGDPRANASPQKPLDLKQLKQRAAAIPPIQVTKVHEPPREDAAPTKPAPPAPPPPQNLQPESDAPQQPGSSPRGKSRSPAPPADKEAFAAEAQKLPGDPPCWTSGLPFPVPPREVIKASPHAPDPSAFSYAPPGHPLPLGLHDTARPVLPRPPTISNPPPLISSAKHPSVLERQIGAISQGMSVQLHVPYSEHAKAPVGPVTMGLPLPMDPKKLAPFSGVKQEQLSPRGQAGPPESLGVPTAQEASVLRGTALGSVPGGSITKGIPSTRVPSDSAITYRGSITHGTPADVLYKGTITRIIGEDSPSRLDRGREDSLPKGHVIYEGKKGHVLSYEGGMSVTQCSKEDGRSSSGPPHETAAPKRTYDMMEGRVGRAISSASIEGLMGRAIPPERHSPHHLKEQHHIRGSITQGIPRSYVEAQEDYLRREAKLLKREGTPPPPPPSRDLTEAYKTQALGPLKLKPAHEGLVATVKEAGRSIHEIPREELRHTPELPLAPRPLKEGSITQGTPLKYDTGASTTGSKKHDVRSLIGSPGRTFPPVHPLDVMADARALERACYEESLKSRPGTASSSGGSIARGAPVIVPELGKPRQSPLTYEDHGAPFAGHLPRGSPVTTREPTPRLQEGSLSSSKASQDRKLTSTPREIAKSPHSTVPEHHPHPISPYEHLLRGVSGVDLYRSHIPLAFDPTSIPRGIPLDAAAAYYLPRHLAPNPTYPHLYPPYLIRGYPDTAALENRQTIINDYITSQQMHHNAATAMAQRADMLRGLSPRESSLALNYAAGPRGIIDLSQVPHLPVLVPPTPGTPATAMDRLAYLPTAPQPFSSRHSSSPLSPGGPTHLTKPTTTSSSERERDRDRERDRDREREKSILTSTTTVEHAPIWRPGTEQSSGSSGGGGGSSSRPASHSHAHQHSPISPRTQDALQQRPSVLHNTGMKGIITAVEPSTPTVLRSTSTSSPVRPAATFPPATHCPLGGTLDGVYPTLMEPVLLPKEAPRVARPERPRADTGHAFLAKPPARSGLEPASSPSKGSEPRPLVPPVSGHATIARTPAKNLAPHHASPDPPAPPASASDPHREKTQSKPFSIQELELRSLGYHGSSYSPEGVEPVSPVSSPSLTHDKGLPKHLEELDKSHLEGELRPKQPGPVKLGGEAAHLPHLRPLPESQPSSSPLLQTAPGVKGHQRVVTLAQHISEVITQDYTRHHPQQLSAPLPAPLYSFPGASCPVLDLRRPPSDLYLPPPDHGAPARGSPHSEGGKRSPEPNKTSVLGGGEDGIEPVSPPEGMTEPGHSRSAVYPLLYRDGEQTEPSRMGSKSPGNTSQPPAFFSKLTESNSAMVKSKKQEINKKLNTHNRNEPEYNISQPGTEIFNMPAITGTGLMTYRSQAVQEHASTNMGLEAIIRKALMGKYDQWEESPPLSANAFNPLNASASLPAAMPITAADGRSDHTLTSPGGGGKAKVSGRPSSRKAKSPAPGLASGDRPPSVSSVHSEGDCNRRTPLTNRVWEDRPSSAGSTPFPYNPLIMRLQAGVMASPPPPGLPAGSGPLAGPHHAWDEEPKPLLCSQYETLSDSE

[9] = target: Photoreceptor-specific nuclear receptor (Homo sapiens, UniProt Q9Y5X4); type: functional;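 also: potency for compounds that break the NR2E3 corepressor complex and count as activators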
Photoreceptor-specific nuclear receptor, sequence (Q9Y5X4 whole entry): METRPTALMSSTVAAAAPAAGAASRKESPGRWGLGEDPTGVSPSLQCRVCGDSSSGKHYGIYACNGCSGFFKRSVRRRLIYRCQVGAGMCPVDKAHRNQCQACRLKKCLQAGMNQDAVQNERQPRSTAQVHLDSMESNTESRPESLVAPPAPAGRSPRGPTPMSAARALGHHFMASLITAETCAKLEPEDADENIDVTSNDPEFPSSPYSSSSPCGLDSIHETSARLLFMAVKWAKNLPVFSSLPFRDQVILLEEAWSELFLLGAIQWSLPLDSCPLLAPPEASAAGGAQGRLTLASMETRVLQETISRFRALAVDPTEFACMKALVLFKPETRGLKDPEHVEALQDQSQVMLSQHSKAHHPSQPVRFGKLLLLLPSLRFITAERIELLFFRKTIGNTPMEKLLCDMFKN

[10] = target: Lysosomal acid glucosylceramidase (Homo sapiens, UniProt P04062); assay: Dose response cell-based high throughput screening assay to identify enhancers of beta-glucosidase activity. [Related pubchem assays: 784 ]; type: functional
Lysosomal acid glucosylceramidase, sequence (P04062 whole entry): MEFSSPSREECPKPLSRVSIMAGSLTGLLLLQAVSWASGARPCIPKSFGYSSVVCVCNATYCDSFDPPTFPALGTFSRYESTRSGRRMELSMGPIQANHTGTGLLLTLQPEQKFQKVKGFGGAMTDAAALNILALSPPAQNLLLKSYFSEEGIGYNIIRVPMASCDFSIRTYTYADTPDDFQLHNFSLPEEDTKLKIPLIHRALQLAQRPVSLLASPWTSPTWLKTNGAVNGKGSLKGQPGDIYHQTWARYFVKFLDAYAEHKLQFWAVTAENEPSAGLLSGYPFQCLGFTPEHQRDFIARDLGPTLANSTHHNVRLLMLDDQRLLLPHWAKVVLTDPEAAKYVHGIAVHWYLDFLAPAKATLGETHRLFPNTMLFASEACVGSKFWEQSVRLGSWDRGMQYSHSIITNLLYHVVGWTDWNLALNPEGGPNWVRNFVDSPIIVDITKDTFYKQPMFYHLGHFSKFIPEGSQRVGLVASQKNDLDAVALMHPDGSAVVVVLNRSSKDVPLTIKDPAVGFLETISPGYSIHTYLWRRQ

[11] = Luminescence Cell-Based Dose Response HTS to Identify Inhibitors of 5'UTR Stem-Loop Driven Prion Protein mRNA Translation in H4 Neuroglioblastoma Cells. [Related pubchem assays: 1827 (Project Summary), 1813 (Primary HTS)]; type: functional
[12] = Luminescence-based counterscreen assay for KLF5 inhibitors: dose response cell-based high throughput screening assay to identify cytotoxic compounds using the IEC-6 intestinal epithelial cell line. [Related pubchem assays: 1700 (Primary screen.), 1834 (Confirmation screen.), 1858 (Summary AID.), 1905 (Counterscreen.)]; type: functional
[13] = target: T3, Microphthalmia-associated transcription factor (Homo sapiens, UniProt O75030); assay: reducers of TRPM1 reporter luminescence, concentration series – cell-based, SK-MEL-5, cherry-picked, set 3, MITF inhibitor project, dose response (AID 493073); type: functional;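 also: SK-MEL-5 melanoma cells with luciferase driven by the MITF target TRPM1 promoter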
T3 sequence (O75030 whole entry): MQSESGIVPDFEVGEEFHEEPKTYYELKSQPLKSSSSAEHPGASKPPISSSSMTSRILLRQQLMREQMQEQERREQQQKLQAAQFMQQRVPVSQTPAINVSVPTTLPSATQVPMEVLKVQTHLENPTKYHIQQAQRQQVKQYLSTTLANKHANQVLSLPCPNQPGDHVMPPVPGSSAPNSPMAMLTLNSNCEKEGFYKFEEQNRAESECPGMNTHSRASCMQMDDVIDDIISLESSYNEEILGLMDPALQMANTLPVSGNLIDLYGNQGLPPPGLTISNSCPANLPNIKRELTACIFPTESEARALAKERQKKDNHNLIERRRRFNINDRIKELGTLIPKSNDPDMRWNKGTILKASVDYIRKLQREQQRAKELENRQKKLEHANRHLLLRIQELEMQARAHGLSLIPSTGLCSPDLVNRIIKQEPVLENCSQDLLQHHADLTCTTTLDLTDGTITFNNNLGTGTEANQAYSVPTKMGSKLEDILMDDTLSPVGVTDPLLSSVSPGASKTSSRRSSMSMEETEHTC

[14] = luciferase reporter signal suppression in cells – H4 neuroglioma cells, luminescence, dose response (AID 1990); type: functional, cell-based
[15] = reduction of Shn3 3'UTR-driven luciferase in osteoblasts – cell-based, Clone20 osteoblasts, firefly luciferase, cherry-picked, dose response (AID 624132); type: functional;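 also: firefly luciferase luminescence from reporter carrying the Shn3 3'UTR in osteoblasts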
[16] = Shn3 3'UTR reporter signal decrease – cell-based, Clone20 osteoblasts, firefly luciferase, cherry-pick, set 2, Schnurri-3 inhibitor project, dose response (AID 720490); type: functional;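 also: actives lower the luminescence signal as inhibitors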
[17] = loss of viability in HepG2 cells – cell-based, CellTiter-Glo, cherry-picked, cytotoxicity control for Shn3 inhibitor project, dose response (AID 624134); type: functional

In the case of O=C(Nc1cccc(-c2nc3cccnc3s2)c1)C1c2ccccc2Oc2ccccc21, the IC50 [1] was 7.46 µM (active), the AC50 (Escherichia coli) was 50.5 µM (active) and the IC50 [2] was > 64 µM (inactive).

With Cc1c(CCC(=O)NCCCn2ccnc2)c(=O)oc2cc3oc4c(c3cc12)CCCC4 the IC50 (Insulin-degrading enzyme) was 4.31 µM (active) and the IC50 [3] was 14.4 µM (not active).

In the case of COc1nccnc1NS(=O)(=O)c1ccc(NC(=S)NC(=O)c2cccnc2)cc1, the EC50 [4] was > 50 µM (active).

For CC(=O)C1=NN(c2ccccc2)C(c2cccs2)N1c1ccc(N(C)C)cc1 (configuration not stated), the AC50 (INS1) was 3.1 µM (active), the EC50 [5] was 0.776 µM (active) and the IC50 [6] was > 80 µM (inactive). For the same compound, the EC50 [7] was > 60 µM (inconclusive).

In the case of Cc1ccc(C(=O)C2=C(O)C(=O)N(Cc3cccnc3)C2c2ccc(Br)cc2)o1 (configuration not stated), the IC50 [8] was 9.36 µM (active) and the IC50 [9] was > 39.8 µM (not active).

For Cc1ccc(C(C(=O)NC2CCCCC2)N2CCCC2)cc1 (configuration not stated), the EC50 [10] was > 50 µM (not active).

In the case of O=C(C1=C(O)C(=O)N(CCN2CCOCC2)C1c1ccc(Cl)cc1)c1cc2ccccc2o1 (configuration not stated), the IC50 [8] was 9.92 µM (active) and the IC50 [9] was > 39.8 µM (not active).

In the case of COc1ccc(-n2ncc3c(N4CCCCC4)ncnc32)cc1, the EC50 [11] was 0.282 µM (active), the IC50 [12] was > 39.8 µM (not active) and the AC50 [13] was 1.48 µM (active). The EC50 [14] was 1.72 µM (inconclusive), the AC50 [15] was 2.87 µM (active) and the AC50 [16] was 11 µM (active). For the same compound, the AC50 [17] was > 70 µM (inactive).

— ChEMBL document CHEMBL1201862, “PubChem BioAssay data set” (2004)
